Measurements as given in US9604989B2, “Imidazopyridazines as Akt kinase inhibitors” (Bayer Intellectual Property GmbH, priority 2011, dated 2017).

Key:
p-4E-BP1 at T70 = assay: Cellular p-4E-BP1-T70 assay in KPL-4 cells; type: cell-based; details: Homo sapiens, KPL4; KPL-4 breast tumour cell line, compound treatment 2 hours; read-out: P4EBP1-T70 median IC50
phospho-AKT at S473 = assay: Cellular p-AKT1/2/3-S473 assay in KPL-4 cells; type: cell-based; details: Homo sapiens, KPL4; KPL-4 breast tumour cell line, compound treatment 2 hours; read-out: pAKT-S473 median IC50
Description: The molecular mechanism of action was investigated in a set of experiments to assess the inhibition of the PI3K-AKT-mTOR pathway in responsive cell lines such as KPL-4 breast tumour cell line (PIK3CA^H1047R, HER2^O/E and hormone independent). The phospho-substrates of PI3K-AKT-mTOR axis were used as the read-outs to reflect pathway inhibition. Cells were seeded at 60-80% confluency per well in 96-well cell culture plates. After overnight incubation at 37° C. 5% CO2, cells were treated with compounds and vehicle at 37° C. for 2 hours. […] All measurements where at least done in duplicates and confirmed by independent repetition.
Alternatively pAKT-S473 was measured using the “Akt Duplex” of the MULTI-SPOT® Assay System (Fa. Meso Scale Discovery, Cat#N41100B-1) following manufacturers instructions. Each assay used 20 μg of protein extract and measured total AKT and p-AKT content simultaneously in one well. All measurements where at least done in duplicates and confirmed by independent repetition. Values for P-AKT are expressed as percentage of P-AKT level compared to total-AKT content of the extracts.

[1] = system: KPL-4 breast cancer cell line; assay: Tumor cell proliferation assay (CellTiter-Glo), KPL-4; type: cell-based; details: Homo sapiens, KPL4, 72 h drug exposure, read-out: KLP-4 median IC50
Description: (§1) Biological Assay 4.0: Tumor Cell Proliferation Assays
(§2) Compounds were tested in a cell-based assay that measures the capacity of the compounds to inhibit tumour cell proliferation following a 72 h drug exposure. Cell viability is determined using CellTiter-Glow® (CTG, Promega, cat#G7571/2/3). The CellTiter-Glo® Luminescent Cell Viability Assay is a homogeneous method to determine the number of viable cells in culture.
(§3) Detection is based on using the luciferase reaction to measure the amount of ATP from viable cells. The amount of ATP in cells correlates with cell viability. Within minutes after a loss of membrane integrity, cells lose the ability to synthesize ATP, and endogenous ATPases destroy any remaining ATP; thus the levels of ATP fall precipitously.
(§4) For each cell line assayed, cells were plated onto a separate plate for determination of fluorescence at t=0 hour and t=72 hour time points. Following overnight incubation at 37° C., chemiluminescence values for the t=0 samples were determined after adding 10 μl medium and 100 μl CTG solution according to manufacture protocol. Plates for the t=72 hour time points were treated with compounds diluted into growth medium at ten times final concentration added in 10 μL to the cell culture plate. Cells were then incubated for 72 hours at 37° C. Chemiluminescence values for the t=72 hour samples were determined. […] Experiments were controlled using a reference compound as standard.

[2] = target: His-tagged human recombinant kinase full-length Akt1 (Homo sapiens (Human), UniProt P31749); assay: Akt1 kinase assay (Akt1 TR-FRET assay); type: biochemical; details: 10 μM ATP, 60 min at 22° C., read-out: Akt1 median IC50
Excerpt: Biological Assay 1.0: Akt1 Kinase Assay
Akt1 inhibitory activity of compounds of the present invention was quantified employing the Akt1 TR-FRET assay as described in the following paragraphs.
His-tagged human recombinant kinase full-length Akt1 expressed in insect cells was purchased form Invitrogen (part number PV 3599). As substrate for the kinase reaction the biotinylated peptide biotin-Ahx-[sequence] (C-terminus in amide form) was used which can be purchased e.g. from the company Biosynthan GmbH (Berlin-Buch, Germany).
For the assay 50 nl of a 100 fold concentrated solution of the test compound in DMSO was pipetted into a black low volume 384 well microtiter plate (Greiner Bio-One, Frickenhausen, Germany), 2 μl of a solution of Akt1 in assay buffer [50 mM TRIS/HCl pH 7.5, 5 mM MgCl2, 1 mM dithiothreitol, 0.02% (v/v) Triton X-100 (Sigma)] were added and the mixture was incubated for 15 min at 22° C. to allow pre-binding of the test compounds to the enzyme before the start of the kinase reaction. Then the kinase reaction was started by the addition of 3 μl of a solution of adenosine-tri-phosphate (ATP, 16.7 μM=>final conc. in the 5 μl assay volume is 10 μM) and substrate (1.67 μM=>final conc. in the 5 μl assay volume is 1 μM) in assay buffer and the resulting mixture was incubated for a reaction time of 60 min at 22° C. The concentration of Akt1 in the assay was adjusted depending of the activity of the enzyme lot and was chosen appropriate to have the assay in the linear range, typical enzyme concentrations were in the range of about 0.05 ng/μl (final conc. in the 5 μl assay volume). The reaction was stopped by the addition of 5 μl of a solution of HTRF detection reagents (200 nM streptavidine-XL665 [Cisbio] and 1.5 nM anti-phosho-Serine antibody [Millipore, cat. #35-001] and 0.75 nM LANCE Eu-W 1024 labeled anti-mouse IgG antibody [Perkin Elmer]) in an aqueous EDTA-solution (100 mM EDTA, 0.1% (w/v) bovine serum albumin in 50 mM HEPES/NaOH pH 7.5). The resulting mixture was incubated 1 h at 22° C. to allow the binding of the biotinylated phosphorylated peptide to the streptavidine-XL665 and the antibodies. Subsequently the amount of phosphorylated substrate was evaluated by measurement of the resonance energy transfer from the anti-mouse-IgG-Eu-Chelate to the streptavidine-XL665. Therefore, the fluorescence emissions at 620 nm and 665 nm after excitation at 350 nm was measured in a HTRF reader, e.g. a Rubystar (BMG Labtechnologies, Offenburg, Germany) or a Viewlux (Perkin-Elmer). The ratio of the emissions at 665 nm and at 622 nm was taken as the measure for the amount of phosphorylated substrate.

[3] = target: His-tagged human recombinant kinase full-length Akt2 (Homo sapiens (Human), UniProt P31751); assay: Akt2 kinase assay (Akt2 TR-FRET assay); type: biochemical; details: 10 μM ATP, 60 min at 22° C., read-out: Akt2 median IC50
Excerpt: Akt2 inhibitory activity of compounds of the present invention was quantified employing the Akt2 TR-FRET assay as described in the following paragraphs.
His-tagged human recombinant kinase full-length Akt2 expressed in insect cells and activated by PDK1 was purchased form Invitrogen (part number PV 3975). As substrate for the kinase reaction the biotinylated peptide biotin-Ahx-[sequence] (C-terminus in amide form) was used which can be purchased e.g. from the company Biosynthan GmbH (Berlin-Buch, Germany). For the assay 50 nl of a 100 fold concentrated solution of the test compound in DMSO was pipetted into a black low volume 384 well microtiter plate (Greiner Bio-One, Frickenhausen, Germany), 2 μl of a solution of Akt2 in assay buffer [50 mM TRIS/HCl pH 7.5, 5 mM MgCl2, 1 mM dithiothreitol, 0.02% (v/v) Triton X-100 (Sigma)] were added and the mixture was incubated for 15 min at 22° C. to allow pre-binding of the test compounds to the enzyme before the start of the kinase reaction. Then the kinase reaction was started by the addition of 3 μl of a solution of adenosine-tri-phosphate (ATP, 16.7 μM=>final conc. in the 5 μl assay volume is 10 μM) and substrate (1.67 μM=>final conc. in the 5 μl assay volume is 1 μM) in assay buffer and the resulting mixture was incubated for a reaction time of 60 min at 22° C. The concentration of Akt2 in the assay was adjusted depending of the activity of the enzyme lot and was chosen appropriate to have the assay in the linear range, typical enzyme concentrations were in the range of about 0.2 ng/μl (final conc. in the 5 μl assay volume). The reaction was stopped by the addition of 5 μl of a solution of HTRF detection reagents (200 nM streptavidine-XL665 [Cisbio] and 1.5 nM anti-phosho-Serine antibody [Millipore, cat. #35-001] and 0.75 nM LANCE Eu-W 1024 labeled anti-mouse IgG antibody [Perkin Elmer]) in an aqueous EDTA-solution (100 mM EDTA, 0.1% (w/v) bovine serum albumin in 50 mM HEPES/NaOH pH 7.5). The resulting mixture was incubated 1 h at 22° C. to allow the binding of the biotinylated phosphorylated peptide to the streptavidine-XL665 and the antibodies. Subsequently the amount of phosphorylated substrate was evaluated by measurement of the resonance energy transfer from the anti-mouse-IgG-Eu-Chelate to the streptavidine-XL665. Therefore, the fluorescence emissions at 620 nm and 665 nm after excitation at 350 nm was measured in a TR-FRET reader, e.g. a Rubystar (BMG Labtechnologies, Offenburg, Germany) or a Viewlux (Perkin-Elmer). The ratio of the emissions at 665 nm and at 622 nm was taken as the measure for the amount of phosphorylated substrate.

[4] = system: MCF-7 breast tumour cell line; assay: Tumor cell proliferation assay (CellTiter-Glo), MCF-7; type: cell-based; details: Homo sapiens, MCF7, 72 h drug exposure, read-out: MCF-7 median IC50
Description: as §1, §2, §3, §4

His-tagged human recombinant kinase full-length Akt2, sequence (P31751 whole entry): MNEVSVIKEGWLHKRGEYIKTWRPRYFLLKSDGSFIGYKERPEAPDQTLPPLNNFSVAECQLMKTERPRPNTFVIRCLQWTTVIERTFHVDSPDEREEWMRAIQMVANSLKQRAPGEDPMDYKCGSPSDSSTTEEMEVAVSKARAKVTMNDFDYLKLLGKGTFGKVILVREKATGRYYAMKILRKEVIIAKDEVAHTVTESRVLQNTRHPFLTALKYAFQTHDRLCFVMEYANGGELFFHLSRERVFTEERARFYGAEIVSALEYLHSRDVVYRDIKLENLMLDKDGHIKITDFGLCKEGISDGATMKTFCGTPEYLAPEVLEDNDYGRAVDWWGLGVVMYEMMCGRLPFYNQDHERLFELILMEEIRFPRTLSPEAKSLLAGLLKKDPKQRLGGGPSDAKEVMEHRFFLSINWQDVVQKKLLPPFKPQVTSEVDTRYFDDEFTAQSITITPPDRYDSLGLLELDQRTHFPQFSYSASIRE
His-tagged human recombinant kinase full-length Akt1, sequence (P31749 whole entry): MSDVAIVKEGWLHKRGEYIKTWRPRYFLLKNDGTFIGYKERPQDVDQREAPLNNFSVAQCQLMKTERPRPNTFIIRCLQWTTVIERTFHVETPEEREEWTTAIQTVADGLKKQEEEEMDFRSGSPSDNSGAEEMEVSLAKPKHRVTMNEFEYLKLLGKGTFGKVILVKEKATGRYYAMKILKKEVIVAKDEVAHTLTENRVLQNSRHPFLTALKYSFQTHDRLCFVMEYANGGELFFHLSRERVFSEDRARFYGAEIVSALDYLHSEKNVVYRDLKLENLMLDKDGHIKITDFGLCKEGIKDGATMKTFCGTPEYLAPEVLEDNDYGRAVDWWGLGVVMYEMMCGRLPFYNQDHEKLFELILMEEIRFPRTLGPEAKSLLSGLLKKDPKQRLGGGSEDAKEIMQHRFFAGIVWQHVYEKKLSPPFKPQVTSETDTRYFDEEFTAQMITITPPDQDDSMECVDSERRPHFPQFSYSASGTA

SMILES | IC50 (p-4E-BP1 at T70) [nM] | IC50 (phospho-AKT at S473) [nM] | IC50 [1] [nM] | IC50 [2] [nM] | IC50 [3] [nM] | IC50 [4] [nM]
NC1(c2ccc(-c3nc4cccnn4c3-c3ccccc3)cc2)CCC1 [Example 25, 1-[4-(3-Phenylimidazo[1,2-b]pyridazin-2-yl)phenyl]cyclobutanamine] | 550 | 90 | 2000 | 190 | 160 | 1900
NC1(c2ccc(-c3nc4ccc(O)nn4c3-c3ccccc3)cc2)CCC1 [Example 79, 2-[4-(1-Aminocyclobutyl)phenyl]-3-phenylimidazo[1,2-b]pyridazin-6-ol] | 910 | 210 | 10000 | 2000 | 2800 | 10000
COc1cc(-c2cccnc2)c2nc(-c3ccc(C4(N)CCC4)cc3)c(-c3ccccc3)n2n1 [Example 14, 1-{4-[6-Methoxy-3-phenyl-8-(pyridin-3-yl)imidazo [1,2-b]pyridazin-2-yl]phenyl}cyclobutanamine] | 320 | 220 | 1900 | 9.8 | 65 | 1800
COc1cc(-c2cc[nH]n2)c2nc(-c3ccc(C4(N)CCC4)cc3)c(-c3ccccc3)n2n1 [Example 73, 1-{4-[6-Methoxy-3-phenyl-8-(1H-pyrazol-3-yl)imidazo[1,2-b]pyridazin-2-yl]-phenyl}cyclobutanamine] | 1700 | 230 | 1800 | 4.3 | 43 | 2000
CCOc1cc(Cl)nn2c(-c3ccccc3)c(-c3ccc(C4(N)CCC4)cc3)nc12 [Example 30, 1-[4-(6-Chloro-8-ethoxy-3-phenylimidazo[1,2-b]pyridazin-2-yl)phenyl]cyclobutanamine] | 2500 | 400 | 6000 | 51 | 58 | 2600
CC(=O)Nc1ccnn2c(-c3ccccc3)c(-c3ccc(C4(N)CCC4)cc3)nc12 [Example 49, N-{2-[4-(1-Aminocyclobutyl)phenyl]-3-phenylimidazo[1,2-b]pyridazin-8-yl}acetamide] | 41 | 8 | 140 | 68 | 120 | 610
CNC(=O)c1cc(-c2ncc[nH]2)c2nc(-c3ccc(C4(N)CCC4)cc3)c(-c3ccccc3)n2n1 [Example 62, 2-[4-(1-Aminocyclobutyl)phenyl]-8-(1H-imidazol-2-yl)-N-methyl-3-phenylimidazo[1,2-b]pyridazine-6-carboxamide] | 35 | 0.4 | – | 16 | 62 | –
COc1cc(Br)nn2c(-c3ccccc3)c(-c3ccc(C4(N)CCC4)cc3)nc12 [Example 7, 1-[4-(6-Bromo-8-methyloxy-3-phenylimidazo[1,2-b]pyridazin-2-yl)phenyl]-cyclobutanamine] | 1300 | 27 | 250 | 6.9 | 9.7 | 410
COc1cc(OC)c2nc(-c3ccc(C4(N)CCC4)cc3)c(-c3ccccc3)n2n1 [Example 9, 1-[4-(6,8-Dimethyloxy-3-phenylimidazo[1,2-b]pyridazin-2-yl)phenyl]-cyclobutanamine] | 690 | 36 | 770 | 3.9 | 18 | 340
CCCCOc1cc(OCC)nn2c(-c3ccccc3)c(-c3ccc(C4(N)CCC4)cc3)nc12 [Example 77, 1-[4-(8-Butoxy-6-ethoxy-3-phenylimidazo[1,2-b]pyridazin-2-yl)phenyl]-cyclobutanamine] | 1400 | 460 | 1900 | 10 | 61 | 1700
CCc1cc(CC)c2nc(-c3ccc(C4(N)CCC4)cc3)c(-c3ccccc3)n2n1 [Example 16, 1-[4-(6,8-Diethyl-3-phenylimidazo[1,2-b]pyridazin-2-yl)phenyl]cyclobutanamine] | 2500 | 520 | 2000 | 160 | 160 | 1800
COc1cc(C(N)=O)nn2c(-c3ccccc3)c(-c3ccc(C4(N)CCC4)cc3)nc12 [Example 10, 2-[4-(1-Aminocyclobutyl)phenyl]-8-methoxy-3-phenylimidazo[1,2-b]-pyridazine-6-carboxamide] | 28 | 2.4 | 49 | 2.6 | 4.1 | 39
C=Cc1cc(-c2cc[nH]n2)c2nc(-c3ccc(C4(N)CCC4)cc3)c(-c3ccccc3)n2n1 [Example 20, 1-{4-[3-Phenyl-8-(1H-pyrazol-3-yl)-6-vinylimidazo [1,2-b]pyridazin-2-yl]phenyl}cyclobutanamine] | 1500 | 520 | 2600 | 120 | 170 | 1800
CCOc1ccc2nc(-c3ccc(C4(N)CCC4)cc3)c(-c3ccccc3)n2n1 [Example 78, 1-[4-(6-Ethoxy-3-phenylimidazo[1,2-b]pyridazin-2-yl)phenyl]cyclobutanamine] | 580 | 92 | – | 32 | 230 | –

The next lines start with the values.

IC50 (p-4E-BP1 at T70) [nM] | IC50 (phospho-AKT at S473) [nM] | IC50 [1] [nM] | IC50 [2] [nM] | IC50 [3] [nM] | IC50 [4] [nM] | SMILES
1000 | 200 | 1700 | 9.2 | 2.4 | 870 | COc1nn2c(-c3ccccc3)c(-c3ccc(C4(N)CCC4)cc3)nc2c(C)c1C [Example 53, 1-[4-(6-Methoxy-7,8-dimethyl-3-phenylimidazo[1,2-b]pyridazin-2-yl)phenyl]-cyclobutanamine]
> 10000 | > 10000 | > 10000 | 450 | 400 | > 10000 | NC1(c2ccc(-c3nc4ccc(C(=O)O)nn4c3-c3ccccc3)cc2)CCC1 [Example 8, 2-[4-(1-Aminocyclobutyl)phenyl]-3-phenylimidazo[1,2-b]pyridazine-6-carboxylic acid]
> 10000 | > 10000 | – | 58 | 96 | – | NC1(c2ccc(-c3nc4c(-c5cc[nH]n5)cc(C(=O)O)nn4c3-c3ccccc3)cc2)CCC1 [Example 67, 2-[4-(1-Aminocyclobutyl)phenyl]-3-phenyl-8-(1H-pyrazol-3-yl)imidazo[1,2-b]-pyridazine-6-carboxylic acid]
360 | 570 | 8200 | 6.6 | 16 | 1100 | COC(=O)c1cc(-c2cc[nH]n2)c2nc(-c3ccc(C4(N)CCC4)cc3)c(-c3ccccc3)n2n1 [Example 56, Methyl 2-[4-(1-aminocyclobutyl)phenyl]-3-phenyl-8-(1H-pyrazol-3-yl)-imidazo[1,2-b]pyridazine-6-carboxylate]
– | 160 | 1800 | 170 | 380 | 600 | Cc1ccc2nc(-c3ccc(C4(N)CCC4)cc3)c(-c3ccccc3)n2n1 [Example 1, 1-[4-(6-Methyl-3-phenylimidazo[1,2-b]pyridazin-2-yl)phenyl]cyclobutanamine]
590 | 1000 | 2200 | 310 | 580 | 3000 | COC(=O)CCc1ccnn2c(-c3ccccc3)c(-c3ccc(C4(N)CCC4)cc3)nc12 [Example 72, Methyl 3-{2-[4-(1-aminocyclobutyl)phenyl]-3-phenylimidazo[1,2-b]pyridazin-8-yl}propanoate]
430 | 12 | – | 43 | 92 | – | NC1(c2ccc(-c3nc4ccc(Cl)nn4c3-c3ccccc3)cc2)CCC1 [Example 17, 1-[4-(6-Chloro-3-phenylimidazo[1,2-b]pyridazin-2-yl)phenyl]cyclobutanamine]
2500 | 81 | 3200 | 580 | 510 | 2000 | CC(=O)Nc1ccc2nc(-c3ccc(C4(N)CCC4)cc3)c(-c3ccccc3)n2n1 [Example 37, N-{2-[4-(1-Aminocyclobutyl)phenyl]-3-phenylimidazo[1,2-b]pyridazin-6-yl}acetamide]
1200 | 590 | 7000 | 42 | 81 | 1400 | COC(=O)c1nn2c(-c3ccccc3)c(-c3ccc(C4(N)CCC4)cc3)nc2c(C)c1C [Example 51, Methyl 2-[4-(1-aminocyclobutyl)phenyl]-7,8-dimethyl-3-phenylimidazo[1,2-b]pyridazine-6-carboxylate]
160 | 14 | 630 | 130 | 110 | 470 | COc1ccnn2c(-c3ccccc3)c(-c3ccc(C4(N)CCC4)cc3)nc12 [Example 11, 1-[4-(8-Methoxy-3-phenylimidazo[1,2-b]pyridazin-2-yl)phenyl]cyclobutanamine]
90 | 0.9 | 1800 | – | 10 | 1800 | CNC(=O)c1cc(OC)c2nc(-c3ccc(C4(N)CCC4)cc3)c(-c3ccccc3)n2n1 [Example 26, 2-[4-(1-Aminocyclobutyl)phenyl]-8-methoxy-N-methyl-3-phenylimidazo[1,2-b]pyridazine-6-carboxamide]
